Results reported in paper PMC4737552 (Neuropharmacology, 2015).
Like-named read-outs stand apart in the source and are kept apart here.

How the values were obtained:
[1] = biological target: T1, rat α1β3δ GABAA receptor (Rattus norvegicus, UniProt P18506+P62813+P63079); settings: for Potentiation of saturating (maximal) GABA currents: sub-gating concentration of drug
[2] = biological target: rat α4β3δ GABAA receptor (Rattus norvegicus, UniProt P18506+P28471+P63079); assay: Whole-cell patch clamp, HEK293 cells expressing extrasynaptic rat α4β3δ GABAARs; assay type: cell-based; settings: for Potentiation of saturating (maximal) GABA currents: sub-gating concentration of drug
[3] = biological target: human α2β2γ2 GABAA receptor (Homo sapiens, UniProt P18507+P47869+P47870, DEL377-384, form not given); assay: Whole-cell patch clamp, HEK293 cells expressing α2β2γ2 GABAARs; assay type: cell-based
[4] = biological target: human α1β1γ2 GABAA receptor (Homo sapiens, UniProt P14867+P18505+P18507, DEL377-384, form not given); assay: Whole-cell patch clamp, HEK293 cells expressing α1β1γ2 GABAARs; assay type: cell-based
[5] = biological target: human α3β2γ2 GABAA receptor (Homo sapiens, UniProt P18507+P34903+P47870, DEL377-384, form not given); assay: Whole-cell patch clamp, HEK293 cells expressing α3β2γ2 GABAARs; assay type: cell-based
[6] = biological target: human α1β2γ2 GABAA receptor (Homo sapiens, UniProt P14867+P18507+P47870, DEL377-384, form not given); assay type: cell-based; settings: for Enhancement of GABA current by carisoprodol, % of control: 100 µM CSP
[7] = biological target: human α6β2γ2 GABAA receptor (Homo sapiens, UniProt P18507+P47870+Q16445, DEL377-384, form not given); assay: Whole-cell patch clamp, HEK293 cells expressing α6β2γ2 GABAARs; assay type: cell-based
[8] = biological target: T2, human α1β2 GABAA receptor (Homo sapiens, UniProt P14867+P47870); assay type: cell-based
T2 sequence (P14867 28-456): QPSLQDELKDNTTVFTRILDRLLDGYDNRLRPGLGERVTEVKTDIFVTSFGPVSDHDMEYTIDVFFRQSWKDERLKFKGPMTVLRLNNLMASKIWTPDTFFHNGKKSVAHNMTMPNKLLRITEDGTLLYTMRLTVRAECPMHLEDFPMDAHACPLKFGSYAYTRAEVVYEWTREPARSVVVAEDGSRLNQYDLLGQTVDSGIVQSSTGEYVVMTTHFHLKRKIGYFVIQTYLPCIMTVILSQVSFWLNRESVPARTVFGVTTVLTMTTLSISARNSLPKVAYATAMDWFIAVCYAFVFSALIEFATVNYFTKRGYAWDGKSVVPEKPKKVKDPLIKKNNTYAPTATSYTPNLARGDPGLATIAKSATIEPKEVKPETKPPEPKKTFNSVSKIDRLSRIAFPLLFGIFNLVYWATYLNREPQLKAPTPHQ
T2 sequence (P47870 25-512 limits assumed): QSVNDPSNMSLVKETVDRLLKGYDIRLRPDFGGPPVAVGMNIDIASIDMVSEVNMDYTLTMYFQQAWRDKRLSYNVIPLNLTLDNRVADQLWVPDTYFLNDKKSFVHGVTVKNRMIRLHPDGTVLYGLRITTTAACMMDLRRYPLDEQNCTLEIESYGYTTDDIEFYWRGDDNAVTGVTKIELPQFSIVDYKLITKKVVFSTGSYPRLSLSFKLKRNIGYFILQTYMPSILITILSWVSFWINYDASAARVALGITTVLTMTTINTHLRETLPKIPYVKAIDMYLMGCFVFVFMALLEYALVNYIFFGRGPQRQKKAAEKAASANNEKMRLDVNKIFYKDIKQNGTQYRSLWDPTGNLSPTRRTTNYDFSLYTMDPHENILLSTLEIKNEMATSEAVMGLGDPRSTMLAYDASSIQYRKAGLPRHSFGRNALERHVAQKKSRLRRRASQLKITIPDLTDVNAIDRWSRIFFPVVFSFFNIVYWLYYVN

[9] = biological target: T1, rat α1β3δ GABAA receptor; assay: cell-based
[10] = case reports; ref McIntyre et al., 2012; Robertson and Marinetti, 2003; cited from earlier work
[11] = biological target: T3, rat α1β3 GABAA receptor (Rattus norvegicus, UniProt P62813+P63079)
[12] = biological target: rat α1β2 GABAA receptor (Rattus norvegicus, UniProt P62813+P63138); assay: Whole-cell patch clamp, HEK293 cells expressing rat α1β2 GABAARs; assay type: cell-based
[13] = biological target: human α4β2γ2 GABAA receptor (Homo sapiens, UniProt P18507+P47870+P48169, DEL377-384, form not given); assay: Whole-cell patch clamp, HEK293 cells expressing α4β2γ2 GABAARs; assay type: cell-based
[14] = biological target: T3, rat α1β3 GABAA receptor; assay: cell-based
[15] = system: αxβ2γ2 GABAA receptors, where x = α subunit 1–6; assay: Whole-cell patch clamp, direct gating across αxβ2γ2 GABAA receptors; assay type: cell-based, human; settings: range over α1–α6 β2γ2 receptors
[16] = biological target: rat α1β3γ2 GABAA receptor (Rattus norvegicus, UniProt P18508+P62813+P63079); assay: Whole-cell patch clamp, HEK293 cells expressing rat α1β3γ2 GABAARs; assay type: cell-based
[17] = biological target: human α5β2γ2 GABAA receptor (Homo sapiens, UniProt P18507+P31644+P47870, DEL377-384, form not given); assay: Whole-cell patch clamp, HEK293 cells expressing α5β2γ2 GABAARs; assay type: cell-based
[18] = single dose of 350 mg; ref Littrell et al., 1993; cited from earlier work
[19] = maximum current by carisoprodol plus GABA (EC20) normalized to GABA (EC20) currents
[20] = normalized to maximum GABA gated currents
[21] = read-out: Carisoprodol direct gating EC50, relative to maximum current elicited by carisoprodol
[22] = read-out: EC50 for allosteric modulation by carisoprodol, in the presence of GABA (EC20)

Chain of rat α4β3δ GABAA receptor (P28471 36-552): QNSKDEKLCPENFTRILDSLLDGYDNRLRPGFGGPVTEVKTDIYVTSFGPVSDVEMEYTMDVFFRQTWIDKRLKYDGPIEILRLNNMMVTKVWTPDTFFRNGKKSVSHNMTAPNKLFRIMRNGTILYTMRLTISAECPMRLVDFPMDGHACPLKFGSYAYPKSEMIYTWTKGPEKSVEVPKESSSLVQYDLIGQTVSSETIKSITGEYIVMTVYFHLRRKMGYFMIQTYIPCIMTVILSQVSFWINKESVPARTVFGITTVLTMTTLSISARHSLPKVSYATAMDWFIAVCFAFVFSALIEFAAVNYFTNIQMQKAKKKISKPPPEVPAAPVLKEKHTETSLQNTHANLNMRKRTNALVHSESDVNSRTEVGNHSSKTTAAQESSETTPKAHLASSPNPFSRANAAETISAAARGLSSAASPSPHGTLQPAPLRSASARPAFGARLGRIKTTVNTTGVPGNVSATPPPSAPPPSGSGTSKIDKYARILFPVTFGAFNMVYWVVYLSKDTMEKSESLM
Chain of rat α4β3δ GABAA receptor (P63079 26-473): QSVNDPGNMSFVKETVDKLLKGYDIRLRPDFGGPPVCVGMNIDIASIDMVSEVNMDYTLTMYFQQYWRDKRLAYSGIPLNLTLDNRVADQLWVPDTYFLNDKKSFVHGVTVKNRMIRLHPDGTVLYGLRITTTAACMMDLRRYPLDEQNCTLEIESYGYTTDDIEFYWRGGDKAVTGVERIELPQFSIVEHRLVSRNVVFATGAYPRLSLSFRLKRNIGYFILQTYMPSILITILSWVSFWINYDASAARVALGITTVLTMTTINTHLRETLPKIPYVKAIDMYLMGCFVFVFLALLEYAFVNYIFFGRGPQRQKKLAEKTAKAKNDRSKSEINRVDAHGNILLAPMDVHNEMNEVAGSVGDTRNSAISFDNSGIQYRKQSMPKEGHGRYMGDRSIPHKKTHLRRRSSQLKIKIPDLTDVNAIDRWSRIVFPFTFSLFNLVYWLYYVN
Chain of rat α4β3δ GABAA receptor (P18506 17-449 limits assumed): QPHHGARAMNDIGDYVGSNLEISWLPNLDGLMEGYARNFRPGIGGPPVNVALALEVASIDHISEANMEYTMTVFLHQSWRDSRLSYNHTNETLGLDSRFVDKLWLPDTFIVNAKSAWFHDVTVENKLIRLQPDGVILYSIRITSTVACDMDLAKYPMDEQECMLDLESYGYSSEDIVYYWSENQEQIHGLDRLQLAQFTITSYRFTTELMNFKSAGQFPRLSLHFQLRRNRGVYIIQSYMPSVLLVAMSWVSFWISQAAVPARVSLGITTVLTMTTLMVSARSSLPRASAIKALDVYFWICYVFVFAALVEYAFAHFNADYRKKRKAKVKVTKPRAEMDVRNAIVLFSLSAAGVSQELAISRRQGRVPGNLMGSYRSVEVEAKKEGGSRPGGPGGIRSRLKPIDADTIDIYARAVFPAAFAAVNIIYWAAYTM
T3 sequence (P62813 28-455): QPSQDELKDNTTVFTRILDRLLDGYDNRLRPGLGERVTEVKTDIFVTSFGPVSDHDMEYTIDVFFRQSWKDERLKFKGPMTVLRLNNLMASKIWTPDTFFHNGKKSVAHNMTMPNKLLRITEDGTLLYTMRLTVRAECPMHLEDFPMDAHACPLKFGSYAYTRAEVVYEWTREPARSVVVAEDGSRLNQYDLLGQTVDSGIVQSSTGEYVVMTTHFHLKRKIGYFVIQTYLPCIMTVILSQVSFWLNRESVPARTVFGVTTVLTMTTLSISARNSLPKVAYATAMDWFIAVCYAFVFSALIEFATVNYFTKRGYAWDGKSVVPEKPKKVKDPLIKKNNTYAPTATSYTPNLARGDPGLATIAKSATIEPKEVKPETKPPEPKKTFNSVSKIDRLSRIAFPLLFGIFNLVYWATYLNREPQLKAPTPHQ
T3 sequence (P63079 26-473): as the sequence (P63079 26-473) above
T1 sequence (P62813 28-455): as the sequence (P62813 28-455) above
T1 sequence (P63079 26-473): as the sequence (P63079 26-473) above
T1 sequence (P18506 17-449 limits assumed): as the sequence (P18506 17-449 limits assumed) above
Chain of rat α1β2 GABAA receptor (P62813 28-455): as the sequence (P62813 28-455) above
Chain of rat α1β2 GABAA receptor (P63138 25-474 limits assumed): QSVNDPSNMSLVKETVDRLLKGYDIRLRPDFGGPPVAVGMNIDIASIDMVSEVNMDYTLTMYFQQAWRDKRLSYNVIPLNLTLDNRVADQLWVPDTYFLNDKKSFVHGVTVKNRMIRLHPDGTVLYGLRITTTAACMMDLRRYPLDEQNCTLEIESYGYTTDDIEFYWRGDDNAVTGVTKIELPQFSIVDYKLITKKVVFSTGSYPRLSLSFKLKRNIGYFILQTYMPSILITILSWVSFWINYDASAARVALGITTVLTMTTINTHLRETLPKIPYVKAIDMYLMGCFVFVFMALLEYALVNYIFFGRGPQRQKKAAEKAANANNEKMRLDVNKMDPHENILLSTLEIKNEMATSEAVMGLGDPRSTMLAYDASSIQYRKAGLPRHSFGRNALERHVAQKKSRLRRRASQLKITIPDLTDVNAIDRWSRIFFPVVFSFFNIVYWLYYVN

CCCC(C)C1(CC)C(=O)NC(=O)NC1=O (stereo not shown) [pentobarbital]
Potentiation of saturating (maximal) GABA currents ([1]; α1β3δ): potentiation of saturating GABA currents | Potentiation of saturating (maximal) GABA currents [2]: potentiation of saturating GABA currents

NCCCC(=O)O [GABA, γ-aminobutyric acid]
GABA Hill Coefficient [3]: 1.09 ± 0.12 | GABA Hill Coefficient [4]: 1.17 ± 0.09 | GABA Hill Coefficient [5]: 1.04 ± 0.06 | GABA Hill Coefficient [6]: 1.32 ± 0.03 | GABA current amplitude at +60 mV as % of that recorded at −60 mV (outward rectification) ([6]; lower concentrations of GABA): 110% | GABA Hill Coefficient [7]: 1.02 ± 0.12 | GABA Hill Coefficient ([8]; α1β2): 1.32 ± 0.11

CCCC(C)(COC(N)=O)COC(=O)NC(C)C (stereo not shown) [carisoprodol, Carisoprodol]
EC50 ([9]; CSP gating EC50, rat α1β3δ, relative to maximum current elicited by carisoprodol): 801 ± 24.2 µM | EC50 ([9]; CSP modulation EC50, rat α1β3δ, in the presence of GABA (EC20)): 109 ± 11.4 µM | Efficacy of allosteric modulation by carisoprodol [3, 19]: 198.5 ± 9.5 % | Carisoprodol direct gating Efficacy [3, 20]: 30.1 ± 1.4% | EC50 [3, 21]: 829 ± 50.2 µM | EC50 [3, 22]: 64.9 ± 19.1 µM | Efficacy of allosteric modulation by carisoprodol [4, 19]: 225.6 ± 14.6 % | Carisoprodol direct gating Efficacy [4, 20]: 69.7 ± 5.4 % | EC50 [4, 21]: 729 ± 58.1 µM | EC50 [4, 22]: 33.1 ± 4 µM | Efficacy of allosteric modulation by carisoprodol [5, 19]: 242.7 ± 35.1 % | Carisoprodol direct gating Efficacy [5, 20]: 13.4 ± 1.4 % | EC50 [5, 21]: 1870 ± 92.4 µM | EC50 [5, 22]: 63.7 ± 16.5 µM | Fatal blood or plasma concentration [10]: ≥ 140 µM | CSP modulation Efficacy ([11]; rat α1β3, maximum current by carisoprodol plus GABA (EC20) normalized to GABA (EC20) currents): 234.5 ± 18.9 | CSP gating Efficacy ([11]; rat α1β3, normalized to maximum GABA gated currents): 50.8 ± 6.24 | Potentiation of saturating (maximal) GABA currents ([11]; α1β3, sub-gating concentration of drug): not seen | EC50 ([12]; CSP gating EC50, rat α1β2, relative to maximum current elicited by carisoprodol): 670 ± 22.2 µM | EC50 ([12]; CSP modulation EC50, rat α1β2, in the presence of GABA (EC20)): 120 ± 10.5 µM | CSP modulation Efficacy ([12]; rat α1β2, maximum current by carisoprodol plus GABA (EC20) normalized to GABA (EC20) currents): 442.2 ± 27.7 | CSP gating Efficacy ([12]; rat α1β2, normalized to maximum GABA gated currents): 44.6 ± 4.85 | Enhancement of GABA current by carisoprodol, % of control ([6]; +60 mV): 204.8 ± 5.3% | Enhancement of GABA current by carisoprodol, % of control ([6]; −60 mV): 285.3 ± 17.7% | Mean carisoprodol direct gating effect, % of maximal GABA-gated current ([6]; 100 µM carisoprodol): 2.8% | Voltage-dependence of direct gating effect ([6]; 1 mM CSP, −60 mV vs +60 mV): not impacted by membrane voltage | Efficacy of allosteric modulation by carisoprodol [6, 19]: 474.7 ± 53.5% | EC50 [6, 21]: 686 ± 30.4 µM | EC50 [6, 22]: 88.2 ± 19.9 µM | CSP modulation Efficacy ([1]; rat α1β3δ, maximum current by carisoprodol plus GABA (EC20) normalized to GABA (EC20) currents): 241.5 ± 25.1 | CSP gating Efficacy ([1]; rat α1β3δ, normalized to maximum GABA gated currents): 128.7 ± 12.3 | Carisoprodol direct gating efficacy relative to THIP ([1]; α1β3δ): roughly 90% | Potentiation of saturating (maximal) GABA currents ([1]; α1β3δ): significant potentiation of maximal GABA currents | Efficacy of allosteric modulation by carisoprodol [13, 19]: 240.0 ± 16.4 % | Carisoprodol direct gating Efficacy [13, 20]: 37.3 ± 5.0% | EC50 [13, 21]: 758 ± 61.3 µM | EC50 [13, 22]: 72.3 ± 10.1 µM | EC50 ([14]; CSP gating EC50, rat α1β3, relative to maximum current elicited by carisoprodol): 606 ± 25.3 µM | EC50 ([14]; CSP modulation EC50, rat α1β3, in the presence of GABA (EC20)): 135 ± 12.8 µM | Maximal carisoprodol-gated current, efficacy as % of maximal GABA-gated current [15]: 13–43% | Efficacy of allosteric modulation by carisoprodol [7, 19]: 232.6 ± 26.9 % | Carisoprodol direct gating Efficacy [7, 20]: 36.8 ± 4.7% | EC50 [7, 21]: 294 ± 28.1 µM | EC50 [7, 22]: 79.8 ± 13.8 µM | EC50 ([16]; CSP modulation EC50, rat α1β3γ2, in the presence of GABA (EC20)): 131 ± 12.4 µM | CSP gating Efficacy ([16]; rat α1β3γ2, normalized to maximum GABA gated currents): 44.8 ± 3.23 | Potentiation of saturating (maximal) GABA currents ([16]; α1β3γ2, sub-gating concentration of drug): not seen | EC50 ([8]; Carisoprodol direct gating EC50, α1β2, relative to maximum current elicited by carisoprodol): 679 ± 24.3 µM | EC50 ([8]; EC50 for allosteric modulation by carisoprodol, α1β2, in the presence of GABA (EC20)): 87.4 ± 16.4 µM | Efficacy of allosteric modulation by carisoprodol ([8]; α1β2, maximum current by carisoprodol plus GABA (EC20) normalized to GABA (EC20) currents): 346.7 ± 67.6% | Carisoprodol direct gating Efficacy ([8]; α1β2, normalized to maximum GABA gated currents): 45.9 ±3% | Potentiation of saturating (maximal) GABA currents [2]: significant potentiation of maximal GABA currents | Efficacy of allosteric modulation by carisoprodol [17, 19]: 247.6 ± 23.0 % | Carisoprodol direct gating Efficacy [17, 20]: 37.7 ± 3.5% | EC50 [17, 21]: 835 ± 60.3 µM | EC50 [17, 22]: 90.8 ± 14.7 µM | Onset of effects after administration [18]: ≤ 30 min | Plasma concentrations [18]: 4000 to 7000 ng/mL | Time in which plasma concentrations are reached [18]: 2 to 4 h

Oc1noc2c1CCNC2 [THIP, 4,5,6,7-tetrahydroisoxazolo(5,4-c)pyridin-3-ol]
THIP-gated currents, % of the amplitude of currents obtained with saturating GABA ([1]; α1β3δ): 135.6 ± 7.2% | THIP-gated currents, % of the amplitude of currents obtained with saturating GABA [2]: 153.4 ± 10.7%
